According to ChEMBL document CHEMBL1201862, “PubChem BioAssay data set” (2004):
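Grown in 96-well plates, cells were treated for 48 hours with each compound at five concentrations. Insufficient inhibition: endpoint recorded as highest concentration tested. GI50: concentration for 50% inhibition of growth.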 Calls of active or inactive are those of the source. No stated cut-off is given here; in the data, active = GI50 up to about 1.1 µM and inactive = higher.

Key:
Experiment in all cases: NCI tumour cell line growth inhibition, 48 h
[1] = test system: SN12C
[2] = test system: HOP-62
[3] = test system: HCC 2998
[4] = test system: TK-10
[5] = test system: NCI-H460
[6] = test system: K562
[7] = test system: NCI-H522
[8] = test system: SF-539
[9] = test system: RXF 393
[10] = test system: OVCAR-3
[11] = test system: SK-MEL-28
[12] = test system: SNB-75
[13] = test system: RPMI-8226
[14] = test system: SF-268
[15] = test system: IGROV-1
[16] = test system: A549
[17] = test system: LOX IMVI

| Compound | GI50 [1] | GI50 [2] | GI50 [3] | GI50 [4] | GI50 [5] | GI50 [6] | GI50 [7] | GI50 [8] | GI50 [9] | GI50 [10] | GI50 [11] | GI50 [12] | GI50 [13] | GI50 [14] | GI50 [15] | GI50 [16] | GI50 [17] |
| --- | --- | --- | --- | --- | --- | --- | --- | --- | --- | --- | --- | --- | --- | --- | --- | --- | --- |
| O.O=C([O-])c1ccccc1Nc1ccccc1C(=O)[O-].[Zn+2] | 83.8 µM (inactive) | > 43.1 µM (inactive) | > 100 µM (inactive) | 95.1 µM (inactive) | > 65.9 µM (inactive) | 28.9 µM (inactive) | 13.2 µM (inactive) | 37.7 µM (inactive) | 20.6 µM (inactive) | 18.8 µM (inactive) | 19.9 µM (inactive) | 18.3 µM (inactive) | 48 µM (inactive) | 21 µM (inactive) | 13.3 µM (inactive) | 47.1 µM (inactive) | 22 µM (inactive) |
| Cc1ccc(C(=O)O)cc1NC(=O)c1cc(/C=C/c2ccccc2)[nH]c(=S)n1 | > 100 µM (inactive) | > 100 µM (inactive) | > 100 µM (inactive) | > 100 µM (inactive) | > 100 µM (inactive) | > 54.8 µM (inactive) | > 100 µM (inactive) | > 100 µM (inactive) | > 100 µM (inactive) | > 100 µM (inactive) | > 100 µM (inactive) | > 100 µM (inactive) | > 44.1 µM (inactive) | > 100 µM (inactive) | > 100 µM (inactive) | > 65.8 µM (inactive) | > 100 µM (inactive) |
| COc1cc([C@@H]2c3cc4c(cc3[C@@H](NC(=O)c3ccccc3)C3COC(=O)[C@@H]32)OCO4)cc(OC)c1O (some centres not stated) | 2.55 µM (inactive) | 2.54 µM (inactive) | 14 µM (inactive) | 32.4 µM (inactive) | 0.361 µM (active) | 3.27 µM (inactive) | 0.423 µM (active) | 6.14 µM (inactive) | 7.31 µM (inactive) | 20.8 µM (inactive) | 13.8 µM (inactive) | 5.43 µM (inactive) | 2.61 µM (inactive) | 4.55 µM (inactive) | 1.65 µM (inactive) | 1.04 µM (active) | 2.52 µM (inactive) |
| CS(=O)(=O)ON1C(=O)c2ccc(N)cc2C1=O | > 100 µM (inactive) | > 55.5 µM (inactive) | > 100 µM (inactive) | > 100 µM (inactive) | > 100 µM (inactive) | 42.8 µM (inactive) | 19.4 µM (inactive) | > 72.9 µM (inactive) | > 40.9 µM (inactive) | > 100 µM (inactive) | > 49.4 µM (inactive) | > 100 µM (inactive) | 23.8 µM (inactive) | > 50.6 µM (inactive) | > 100 µM (inactive) | > 100 µM (inactive) | > 72.6 µM (inactive) |
| COCN1C(=O)C2CC(/C=C/C(N)=O)=CN2C(=O)c2ccccc21 (configuration not stated) | > 100 µM (inactive) | > 100 µM (inactive) | > 100 µM (inactive) | > 100 µM (inactive) | > 100 µM (inactive) | > 100 µM (inactive) | > 100 µM (inactive) | > 100 µM (inactive) | > 100 µM (inactive) | > 100 µM (inactive) | > 100 µM (inactive) | > 100 µM (inactive) | > 100 µM (inactive) | > 100 µM (inactive) | > 100 µM (inactive) | > 100 µM (inactive) | > 100 µM (inactive) |
| CN(CCO)c1nc(=O)c2c(n1C1OC(CO)C(O)C(O)C1O)CCCC2 (configuration not stated) | > 100 µM (inactive) | > 100 µM (inactive) | > 100 µM (inactive) | > 100 µM (inactive) | > 100 µM (inactive) | > 100 µM (inactive) | > 100 µM (inactive) | > 100 µM (inactive) | > 100 µM (inactive) | > 100 µM (inactive) | > 100 µM (inactive) | 62.5 µM (inactive) | > 100 µM (inactive) | > 100 µM (inactive) | > 100 µM (inactive) | > 100 µM (inactive) | > 100 µM (inactive) |
